Results published in patent US12458661B2, “Selenium disulfide compositions for use in treating meibomian gland dysfunction” (priority 2016, dated 2025).

Experiment: Aggregation of SeS2 on contact with aqueous medium
Format: physicochemical
Description: Contacting SeS2 with aqueous medium causes immediate and spontaneous aggregation, such that SeS2 particles with an average size of 5 to 10 microns will form large aggregates of 50 to 500 microns average size. […] Surfactants and various suspending agents are required to stabilize SeS2 suspension in liquid and semi-solid dosage forms in order to enable its topical application.
Selenium disulfide forms agglomerates under aqueous conditions. Contacting selenium disulfide with aqueous medium causes immediate and spontaneous aggregation, causing selenium disulfide particles, with an initial average diameter of 5 to 10 μm, to aggregate into large clumps of 50 to 500 μm average diameter.

Q: For `S=[Se]=S` [SeS2, selenium disulfide], which “Average size of aggregates formed on contact with aqueous medium” value (SeS2 particles of initial average size 5 to 10 microns) is on record?
A: Its value is 50 to 500 microns.

Q: And the “Average diameter of clumps formed on contact with aqueous medium” value (initial average diameter 5 to 10 μm)?
A: Its value is 50 to 500 μm.
